Data: patent US9521846B2, “Template-fixed peptidomimetics with antimicrobial activity” (priority 2006, dated 2016)
Values after ≈ are worked out from the molar mass of the structure shown. Where two headings read alike, the source gives them in different places. Non-standard residues stand in square brackets, D forms with d. Residues, ends and D or L forms follow the SMILES beside them. Dab = NCC[C@H](N)C(=O)O; Abu = CC[C@H](N)C(=O)O

How the values were obtained:
[1] = Plasma stability, human plasma; type: in vitro ADME
P. aeruginosa ATCC 27853 = type: cell-based, Pseudomonas aeruginosa
Procedure, shortened: (§1)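 Peptides were serially diluted two-fold in MH broth containing 0.02% BSA and combined 1:1 with bacterial suspension adjusted to roughly 10^6 CFU/ml, following a modified NCCLS microdilution protocol.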

[2] = system: Pseudomonas aeruginosa P1021903; type: cell-based
Procedure, shortened: as §1

[3] = system: Pseudomonas aeruginosa P8191900; type: cell-based
Procedure, shortened: as §1

[4] = system: Pseudomonas aeruginosa P1021913; type: cell-based
Procedure, shortened: as §1

[5] = system: Pseudomonas aeruginosa IMP 1 Livermore 3140; type: cell-based
Procedure, shortened: as §1

HELA cells (Acc57) = assay: Cytotoxicity assay, MTT reduction (LC 50, GI 50); type: cell-based
Procedure, shortened: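 Read-out was MTT reduction (A595) after 48 h peptide exposure (12.5–50 μM, triplicates) of HeLa cells plated at 7.0×10^3/well and precultured 24 h. Growth % was normalised to a time-zero reading. Linear trend interpolation gave the concentration at −50% growth (LC50) and at 50% growth (GI50).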

[6] = Plasma stability, rat plasma; type: in vitro ADME
[7] = system: human red blood cells (hRBC); assay: Hemolysis; type: cell-based
[8] = system: Pseudomonas aeruginosa (ATCC 27853); assay: In vivo septicemia assay; set-up: species or system CD-1 mice; conditions: groups of 6 mice
Method: Groups of 6 CD-1 (Crl.) derived male mice weighing 24±2 g were used. The mice were each inoculated intravenously (IV) with an LD90-100 of Pseudomonas aeruginosa (ATCC 27853) (9×10^6 CFU/0.5 ml/mouse) in brain heart infusion broth without 5% mucin. Compound at doses of 5, 2.5, 1, 0.5, 0.25 and 0.1 mg/kg, vehicle (0.9% NaCl, 10 ml/kg) was administered subcutaneously (SC) to test animals at 1 hour after bacterial inoculation. Also, an additional group was treated twice with compound at a dose of 5 mg/kg at 1 and 6 hours after bacterial inoculation. Mortality was recorded once daily for 7 days following the bacterial inoculation and an increase of survival of the animals by 50 percent or more (^3 50%) after the bacterial inoculation, relative to vehicle control, indicates significant antimicrobial effect. The MED (ED50) was determined by nonlinear regression using Graph-Pad Prism (Graph Pad Software, USA).
Septicaemia experiment in mice: LD90-100 of Pseudomonas aeruginosa (ATCC 27853) (9×10^6 CFU/0.5 ml/mouse IV and after 1 h Ex. 1 s.c.
Septicaemia experiment in mice: LD90-100 of Pseudomonas aeruginosa (ATCC 27853) (9×10^6 CFU/0.5 ml/mouse IV), and after 1 and 5 h Ex. 40 s.c.
Septicaemia experiment in mice: LD90-100 of Pseudomonas aeruginosa (ATCC 27853) (9×10^6 CFU/0.5 ml/mouse IV), and after 1 and 5 h Ex. 50 s.c.

[9] = average over the five P. aeruginosa strains, Mueller-Hinton broth

| Compound | Stability human Plasma t1/2 [1] [h] | MIC P. aeruginosa ATCC 27853 (P. aeruginosa ATCC 27853; ATCC 27853) [µg/mL] | MIC P. aeruginosa P1021903 ([2]; P1021903) [µg/mL] | MIC P. aeruginosa P8191900 ([3]; P8191900) [µg/mL] | MIC P. aeruginosa P1021913 ([4]; P1021913) [µg/mL] | MIC P. aeruginosa IMP1 Livermore 3140 ([5]; IMP 1 Livermore 3140) [µg/mL] | Cytotoxicity GI50 Hela cells (HELA cells (Acc57)) [µM] | Stability rat Plasma t1/2 [6] [h] | Hemolysis at 100 μg/ml [7]; 100 [%] | Average MIC (P. aeruginosa) [µg/mL] | Dead ([8]; 2 × 1 mg/kg, after 1 and 5 h) | Survivors ([8]; 2 × 1 mg/kg, after 1 and 5 h) | further results |
| --- | --- | --- | --- | --- | --- | --- | --- | --- | --- | --- | --- | --- | --- |
| CC[C@H](C)[C@@H]1NC(=O)[C@H](Cc2c[nH]c3ccccc23)NC(=O)[C@H]([C@@H](C)O)NC(=O)[C@@H]2CCCN2C(=O)[C@H]2CCCN2C(=O)[C@H](CCCCN)NC(=O)[C@H](C)NC(=O)[C@H](CCN)NC(=O)[C@H](CCN)NC(=O)[C@H](Cc2c[nH]c3ccccc23)NC(=O)[C@H](CCN)NC(=O)[C@H](CCN)NC(=O)[C@H](CCCCN)NC(=O)[C@H](CCN)NC1=O [Example 28] (cyclo(TWI[Dab]K[Dab][Dab]W[Dab][Dab]AK[dP]P)) | 5 | 0.04 (≈ 0.0249 µM) | 0.07 (≈ 0.0435 µM) | 0.10 (≈ 0.0622 µM) | 0.16 (≈ 0.0994 µM) | 0.24 (≈ 0.149 µM) | 50 | 5 | 0.1 | 0.12 | – | – | – |
| Example 50: backbone-cyclized; P1-P12 Glu-Trp-Ile-Gln-Lys-Dab-Dab-Ser-Dab-Dab-Ala-Ser; template DPro-LPro; SEQ ID NO: 50 (cyclo(EWIQK[Dab][Dab]S[Dab][Dab]AS[dP]P); SMILES CC[C@H](C)[C@@H]1NC(=O)[C@H](Cc2c[nH]c3ccccc23)NC(=O)[C@H](CCC(=O)O)NC(=O)[C@@H]2CCCN2C(=O)[C@H]2CCCN2C(=O)[C@H](CO)NC(=O)[C@H](C)NC(=O)[C@H](CCN)NC(=O)[C@H](CCN)NC(=O)[C@H](CO)NC(=O)[C@H](CCN)NC(=O)[C@H](CCN)NC(=O)[C@H](CCCCN)NC(=O)[C@H](CCC(N)=O)NC1=O) | – | – | – | – | – | – | 50 | – | – | – | 5 | 1 | MIC P. aeruginosa ATCC 27853 (P. aeruginosa ATCC 27853; Mueller-Hinton broth): 0.09 µg/mL; MIC P. aeruginosa P1021903 ([2]; Mueller-Hinton broth): 0.06 µg/mL; MIC P. aeruginosa P8191900 ([3]; Mueller-Hinton broth): 0.13 µg/mL; MIC P. aeruginosa P1021913 ([4]; Mueller-Hinton broth): 0.50 µg/mL; MIC P. aeruginosa IMP1 Livermore 3140 ([5]; Mueller-Hinton broth): 2.00 µg/mL; Average MIC (P. aeruginosa; [9]): 0.56 µg/mL; Dead ([8]; 2 × 0.1 mg/kg, after 1 and 5 h): 6; Survivors ([8]; 2 × 0.1 mg/kg, after 1 and 5 h): 0; Dead ([8]; 2 × 0.3 mg/kg, after 1 and 5 h): 6; Survivors ([8]; 2 × 0.3 mg/kg, after 1 and 5 h): 0; Dead ([8]; 2 × 3 mg/kg, after 1 and 5 h): 3; Survivors ([8]; 2 × 3 mg/kg, after 1 and 5 h): 3; Dead ([8]; 2 × 10 mg/kg, after 1 and 5 h): 0; Survivors ([8]; 2 × 10 mg/kg, after 1 and 5 h): 6 |
| CC[C@H](C)[C@@H]1NC(=O)[C@H](Cc2c[nH]c3ccccc23)NC(=O)[C@H]([C@@H](C)O)NC(=O)[C@@H]2CCCN2C(=O)[C@H]2CCCN2C(=O)[C@H](CCN)NC(=O)[C@H](C)NC(=O)[C@H](CCN)NC(=O)[C@H](CCN)NC(=O)[C@H](Cc2c[nH]c3ccccc23)NC(=O)[C@H](CCN)NC(=O)[C@H](CCN)NC(=O)[C@H](CCCCN)NC(=O)[C@H](CCC(N)=O)NC1=O [Example 29] (cyclo(TWIQK[Dab][Dab]W[Dab][Dab]A[Dab][dP]P)) | 5 | 0.09 (≈ 0.0559 µM) | 0.13 (≈ 0.0808 µM) | 0.13 (≈ 0.0808 µM) | 0.21 (≈ 0.131 µM) | 0.40 (≈ 0.249 µM) | 50 | 5 | 0.5 | 0.19 | – | – | – |
| CC[C@@H]1NC(=O)[C@H](CCN)NC(=O)[C@H](CCN)NC(=O)[C@H](Cc2c[nH]c3ccccc23)NC(=O)[C@H](CCN)NC(=O)[C@H](CCN)NC(=O)[C@H](CCCCN)NC(=O)[C@H](CCN)NC(=O)[C@H]([C@@H](C)CC)NC(=O)[C@H](Cc2c[nH]c3ccccc23)NC(=O)[C@H]([C@@H](C)O)NC(=O)[C@@H]2CCCN2C(=O)[C@H]2CCCN2C(=O)[C@H](CCN)NC1=O [Example 6] (cyclo(TWI[Dab]K[Dab][Dab]W[Dab][Dab][Abu][Dab][dP]P)) | 5 | 0.05 (≈ 0.0313 µM) | 0.09 (≈ 0.0564 µM) | 0.10 (≈ 0.0627 µM) | 0.16 (≈ 0.1 µM) | 0.24 (≈ 0.15 µM) | 50 | 5 | 0.2 | 0.13 | – | – | – |
| CC[C@H](C)[C@@H]1NC(=O)[C@H](Cc2c[nH]c3ccccc23)NC(=O)[C@H]([C@@H](C)O)NC(=O)[C@@H]2CCCN2C(=O)[C@H]2CCCN2C(=O)[C@H](CCN)NC(=O)CNC(=O)[C@H](CCN)NC(=O)[C@H](CCN)NC(=O)[C@H](Cc2c[nH]c3ccccc23)NC(=O)[C@H](CCN)NC(=O)[C@H](CCN)NC(=O)[C@H](CCCCN)NC(=O)[C@H](CCN)NC1=O [Example 2] (cyclo(TWI[Dab]K[Dab][Dab]W[Dab][Dab]G[Dab][dP]P)) | 5 | 0.04 (≈ 0.0255 µM) | 0.16 (≈ 0.102 µM) | 0.10 (≈ 0.0638 µM) | 0.18 (≈ 0.115 µM) | 0.24 (≈ 0.153 µM) | 50 | 5 | 0.3 | 0.15 | – | – | – |
| CC[C@H](C)[C@@H]1NC(=O)[C@H](Cc2c[nH]c3ccccc23)NC(=O)[C@H]([C@@H](C)O)NC(=O)[C@@H]2CCCN2C(=O)[C@H]2CCCN2C(=O)[C@H](CCN)NC(=O)[C@H](C)NC(=O)[C@H](CCN)NC(=O)[C@H](CCN)NC(=O)[C@H](Cc2c[nH]c3ccccc23)NC(=O)[C@H](CCN)NC(=O)[C@H](CCN)NC(=O)[C@H](CCCCN)NC(=O)[C@H](CCCCN)NC1=O [Example 24] (cyclo(TWIKK[Dab][Dab]W[Dab][Dab]A[Dab][dP]P)) | 5 | – | – | – | – | – | – | 5 | – | – | – | – | MIC P. aeruginosa ATCC 27853 (P. aeruginosa ATCC 27853; Mueller-Hinton broth): 0.05 µg/mL (≈ 0.0311 µM); MIC P. aeruginosa P1021903 ([2]; Mueller-Hinton broth): 0.08 µg/mL (≈ 0.0497 µM); MIC P. aeruginosa P8191900 ([3]; Mueller-Hinton broth): 0.16 µg/mL (≈ 0.0994 µM); MIC P. aeruginosa P1021913 ([4]; Mueller-Hinton broth): 0.16 µg/mL (≈ 0.0994 µM); MIC P. aeruginosa IMP1 Livermore 3140 ([5]; Mueller-Hinton broth): 0.24 µg/mL (≈ 0.149 µM); Hemolysis at 100 μg/ml ([7]; 100 μg/ml of peptide): 0.1%; Average MIC (P. aeruginosa; [9]): 0.14 µg/mL |
| Gentamycin [reference compound] | – | – | – | – | – | – | – | – | – | – | 1 | 5 | Dead ([8]; 1 mg/kg, 1 h after inoculation): 0; Survivors ([8]; 1 mg/kg, 1 h after inoculation): 6 |
| CC[C@H](C)[C@@H]1NC(=O)[C@H](Cc2c[nH]c3ccccc23)NC(=O)[C@H]([C@@H](C)O)NC(=O)[C@@H]2CCCN2C(=O)[C@H]2CCCN2C(=O)[C@H](CCC(N)=O)NC(=O)[C@H](C)NC(=O)[C@H](CCN)NC(=O)[C@H](CCN)NC(=O)[C@H](Cc2c[nH]c3ccccc23)NC(=O)[C@H](CCN)NC(=O)[C@H](CCN)NC(=O)[C@H](CCCCN)NC(=O)[C@H](CCC(N)=O)NC1=O [Example 40] (cyclo(TWIQK[Dab][Dab]W[Dab][Dab]AQ[dP]P)) | – | 0.25 (≈ 0.153 µM) | 0.50 (≈ 0.305 µM) | 0.50 (≈ 0.305 µM) | 0.50 (≈ 0.305 µM) | 1.00 (≈ 0.611 µM) | 50 | – | 0.7 | 0.55 | 2 | 4 | Dead ([8]; 2 × 0.1 mg/kg, after 1 and 5 h): 6; Survivors ([8]; 2 × 0.1 mg/kg, after 1 and 5 h): 0; Dead ([8]; 2 × 0.3 mg/kg, after 1 and 5 h): 6; Survivors ([8]; 2 × 0.3 mg/kg, after 1 and 5 h): 0; Dead ([8]; 2 × 3 mg/kg, after 1 and 5 h): 0; Survivors ([8]; 2 × 3 mg/kg, after 1 and 5 h): 6; Dead ([8]; 2 × 10 mg/kg, after 1 and 5 h): 0; Survivors ([8]; 2 × 10 mg/kg, after 1 and 5 h): 6 |
